Data from ChEMBL document CHEMBL1649487, “Molecular characteristics of travel-related extended-spectrum-beta-lactamase-producing Escherichia coli isolates from the Calgary Health Region” (2009).

Tests used:
Assay type in all cases: functional
[1] = system: Escherichia coli; assay: Antimicrobial activity against Extended-spectrum beta-lactamase producing Escherichia coli clinical isolate assessed as resistant isolate
[2] = system: Escherichia coli; assay: Antimicrobial activity against Extended-spectrum beta-lactamase producing Escherichia coli clinical isolate assessed as resistant isolate in presence of beta-lactamase inhibitor clavulanic acid
[3] = system: Escherichia coli; assay: Antimicrobial activity against Extended-spectrum beta-lactamase producing Escherichia coli clinical isolate assessed as resistant isolate in presence of beta-lactamase inhibitor Tazobactam

Row | Molecule | Activity [1] [%] | other results
1 | NCC[C@H](O)C(=O)N[C@@H]1C[C@H](N)[C@@H](O[C@H]2O[C@H](CN)[C@@H](O)[C@H](O)[C@H]2O)[C@H](O)[C@H]1O[C@H]1O[C@H](CO)[C@@H](O)[C@H](N)[C@H]1O [AMIKACIN] | 1 | –
2 | CC1(C)S[C@@H]2[C@H](NC(=O)[C@H](N)c3ccc(O)cc3)C(=O)N2[C@H]1C(=O)O [AMOXICILLIN] | – | Activity [2]: 74%
3 | O=C1CN(/N=C/c2ccc([N+](=O)[O-])o2)C(=O)N1 [NITROFURANTOIN] | 7 | –
4 | CCN1CCN(C(=O)N[C@@H](C(=O)N[C@@H]2C(=O)N3[C@@H]2SC(C)(C)[C@@H]3C(=O)O)c2ccccc2)C(=O)C1=O [PIPERACILLIN] | – | Activity [3]: 47%
5 | NC[C@H]1O[C@H](O[C@H]2[C@H](O)[C@@H](O[C@H]3O[C@H](CO)[C@@H](O)[C@H](N)[C@H]3O)[C@H](N)C[C@@H]2N)[C@H](N)C[C@@H]1O [TOBRAMYCIN] | 50 | –
6 | GENTAMICIN | 42 | –
